Measured values reported in patent US8647824B2, “Microbial reductive dehalogenation of vinyl chloride” (The Board of Trustees of the Leland Stanford Junior …, priority 2004, dated 2014).
Several values for one entry are separate records, joined by “and”; a condition that tells them apart may be missing. Equal entries are not always repeated.

Assays:
[1] = tested on: KB-1/VC culture; assay: Batch dechlorination and growth kinetics, KB-1/VC culture; type: cell-based, Dehalococcoides-like microorganisms
Description: (§1) Stock cultures. The Victoria mixed culture, containing strain VS, was maintained in a closed continuously stirred tank reactor (CSTR) as previously described. A VC enrichment of this culture, maintained over 5 years, was also used in these investigations. Liquid cultures of the three other cultures evaluated (Pinellas, KB-1/VC, and Dehalococcoides ethenogenes strain 195) were kept in anaerobic bottles, stored in an anaerobic chamber (10% H2, 10% CO2, 80% N2). The bottles were amended with TCE (1-3 μL neat liquid), VC (250 μL gas), and PCE (1-3 μL neat liquid) being added to each, respectively, approximately every two weeks.
(§2) Batch studies. For the experimental portion of this research, two studies were undertaken, one a comparative VC growth study, and the other a comparative growth and substrate utilization study with different chlorinated ethenes. These studies compared the dechlorination abilities of Dehalococcoides ethenogenes strain 195 and the Dehalococcoides-like microorganisms in the three mixed cultures (Victoria, KB-1/VC, and Pinellas).
(§3) For the first study, a VC enriched inoculum was first developed for each of the three mixed cultures. Here, bottles (120 mL) were filled with 60 mL of anaerobic media in an anaerobic chamber as previously described, and inoculated with 200 μL of each stock culture. Gaseous VC (99.5%) was added with a gas tight syringe (200 μL). The cultures were then moved to a shaker (60-80 rpm) in an anaerobic chamber (20±2° C.). Immediately after 5 μmol of ethene was formed in a bottle, 200 μL of the culture was transferred to fresh media (60 mL), in triplicate, and VC was again added (200 μL). The inoculum for the growth study was that formed after exactly 4 μmol of ethene was produced following this second transfer. To compare growth rates on VC, a range in concentration of each inocula (0.1, 0.3, 1, 3, 9 mL) was transferred to fresh media (as above) to result in a liquid volume of 60 mL, and gaseous VC (200 μL) was added to each. […] Hydrogen served as the electron donor and was non-limiting (>3%) in all studies. Headspace samples were periodically removed by syringe (250 μL) for chlorinated ethene analyses.
(§4) The purpose of the second study was to compare dechlorination rates of PCE, TCE and DCE between the three different cultures that grew on VC (Victoria, KB-1/VC and Pinellas). The development of inocula here was performed with VC, just as in the first study. For the growth and substrate utilization experiments, triplicate bottles were set up for each culture containing 1 mL of inoculum and either neat PCE (0.4 μL), neat TCE (0.3 μL), saturated DCE solution (34 μL) or gaseous VC (200 μL). To further investigate TCE removal, bottles (120 mL) were filled with 20 mL of a highly enriched culture of strain VS made from the Victoria culture. Duplicate bottles were supplied with gaseous VC (50 μL on day 0, then 150 μL on day 3) or TCE (0.4 μL neat liquid). Dechlorination was followed until all VC or TCE was converted to ethene (day 12). The change in strain VS concentration during VC and TCE utilization was then determined both by competitive PCR and by an activity procedure evaluated previously for strain VS. In the activity procedure a non-growth limiting concentration of VC (150 μL) along with excess hydrogen is added to a culture and the initial dechlorination rate is measured (over <1 day). A good estimate of strain VS concentration can then be obtained using the previously determined strain VS maximum VC utilization rate (7.8×10^−10 μmol Cl^− (cell·d)^−1). The increase in strain VS concentration during TCE or VC utilization was determined with these two procedures on the culture before and after TCE and VC utilization.
(§5) Comparative dechlorination and growth kinetics. With mixed cultures, the concentration of organisms carrying out a particular reaction is generally unknown and difficult to determine. […]

[2] = tested on: Victoria mixed culture, containing strain VS; assay: Batch dechlorination and growth kinetics, Victoria mixed culture; type: cell-based, Dehalococcoides species strain VS
Description: as §1, §2, §3, §4, §5

[3] = tested on: VC reductive dehalogenase of Dehalococcoides sp. strain VS; assay: VC-reduction enzyme assay with Ti(III)-reduced methyl viologen as electron donor, gas chromatography; type: biochemical
Description: Enzyme assays. Cells were harvested by centrifugation (20,000 g, 20 min, 4° C.) under strictly anoxic conditions using the anoxic chamber, washed and resuspended in degassed MOPS buffer (20 mM, pH 7.2) supplemented with 2 mM DTE and 0.2 mM titanium(III)NTA (buffer A). The buffer was incubated overnight in the anoxic chamber before addition of reducing agents. Cell-free extracts were obtained by anoxic disruption of cells by French Press treatment (138 MPa; two passages), followed by two centrifugation steps (30,000×g, 15 min, 4° C.).
Assays of VC-reduction were conducted as described previously in 2-ml glass vials under an N2/H2 atmosphere with Ti(III)-reduced methyl viologen as artificial electron donor (Rosner et al.) The protein concentration in the assay varied between 10 and 100 μg/ml. The test was started by addition of gaseous VC to the assay mix (total aqueous volume 0.3 ml), and change in VC and ethene concentrations were followed with time by gas chromatography. Experiments testing for reduction of liquid chlorinated ethenes (PCE, TCE, DCE-isomers) were carried out essentially as described above with the appropriate substitution of the chlorinated ethene. The chlorinated compounds were added from aqueous stock solutions.
Oxygen sensitivity of VC-reducing activity in cell-free extract was investigated in buffer amended with resazurin as redox indicator. Prior to addition of VC, the assay was exposed to air until the resazurin underwent a color-change from colorless to pink. Subsequently, the assay was rendered anoxic again by exchanging the gas phase inside the anoxic chamber followed by addition of Ti(III)NTA (5 mM final concentration). All enzyme assays were carried out at ambient temperature, and given activities are means of at least three independent measurements.
Partial purification of VC reductase. Protein purification was performed at 4° C. in the anoxic chamber. The membrane fraction was obtained by centrifugation of cell-free extract at 100,000×g for 90 min at 4° C. The pellet was resuspended in 1 ml buffer A supplemented with 2 mM 3-[(3-cholamidopropyl)dimethylammonio]-1-propanesulfonic acid (CHAPS), and incubated for 1 h on ice. After subsequent centrifugation (100,000×g, 90 min, 4° C.) the solubilized membrane fraction was diluted with an equal volume of buffer B (50 mM 1,3-Bis[tris(hydroxymethyl)methylamino]propane (Bis-Tris Propane), pH 9.6, 2 mM dithiothreitol, 0.2 mM titanium(III)NTA, 20 mM CHAPS), and loaded on a 1-ml HighTrap Q column (Amersham Pharmacia) equilibrated with buffer C (same as buffer B but with 2 mM CHAPS). VC reductive dehalogenase activity was eluted as a single peak (at 550 to 580 mM NaCl) with 10 ml buffer C followed by a 40-ml linear gradient from 0-700 mM NaCl in buffer C at a flow of 1 ml/min. Fractions containing the highest activity were pooled and mixed with an equal volume of buffer A containing 20 mM CHAPS, and applied to a Superose-6 column equilibrated with the same buffer. Enzyme activity was eluted with buffer A at a flow rate of 0.2 ml/min. The protein concentration of the samples was determined according to Bradford with bovine serum albumin as a standard.

[4] = tested on: Pinellas culture; assay: Batch dechlorination and growth kinetics, Pinellas culture; type: cell-based, Dehalococcoides-like microorganisms
Description: as §1, §2, §3, §4, §5

[5] = tested on: Dehalococcoides ethenogenes strain 195; assay: Batch dechlorination, D. ethenogenes strain 195 culture; type: cell-based; conditions: cultures supplied with VC or DCE
Description: as §1, §2
For the first study, a VC enriched inoculum was first developed for each of the three mixed cultures. Here, bottles (120 mL) were filled with 60 mL of anaerobic media in an anaerobic chamber as previously described, and inoculated with 200 μL of each stock culture. Gaseous VC (99.5%) was added with a gas tight syringe (200 μL). […]

## ClC(Cl)=C(Cl)Cl [PCE, tetrachloroethene]
[1]
  PCE dechlorination: failed to dechlorinate
[2]; Victoria mixed culture
  lag period before PCE dechlorination: 6 to 12 days
[3]; 2 h
  transformation during the course of the enzyme assay: not transformed
[3]; saturating concentrations of PCE or TCE present
  effect on the reduction rate of VC: not affected
[4]
  PCE dechlorination: failed to dechlorinate

## Cl/C=C\Cl [DCE, cis-1,2-dichloroethene]
[5]
  dechlorination by D. ethenogenes strain 195: did dechlorinate DCE to VC
[1]; 95% confidence interval
  Maximum Growth Rate: 0.44 ± 0.02 day⁻¹
[2]; VS Mixed (Victoria) culture, 95% confidence interval, least-squares model fit
  Maximum Growth Rate: 0.46 ± 0.04 day⁻¹
[4]; 95% confidence interval
  Maximum Growth Rate: 0.43 day⁻¹ and 0.43 ± 0.00 day⁻¹

B1: VC reductive dehalogenase: VC reductive dehalogenase partially purified from Dehalococcoides sp. strain VS; corrinoid/iron-sulfur cluster reductive dehalogenase (protein)
chain: MSKFHKTISRRDFMKGLGLAGAGIGAVAASAPVFHDIDELVSSEANSTKDQPWYVKHREHFDPTITVDWDIFDRYDGYQHKGVYEGPPDAPFTSWGNRLQVRMSGEEQKKRILAAKKERFPGWDGGLHGRGDQRADALFYAVTQPFPGSGEEGHGLFQPYPDQPGKFYARWGLYGPPHDSAPPDGSVPKWEGTPEDNFLMLRAAAKYFGAGGVGALNLADPKCKKLIYKKAQPMTLGKGTYSEIGGPGMIDAKIYPKVPDHAVPINFKEADYSYYNDAEWVIPTKCESIFTFTLPQPQELNKRTGGIAGAGSYTVYKDFARVGTLVQMFIKYLGYHALYWPIGWGPGGCFTTFDGQGEQGRTGAAIHWKFGSSQRGSERVITDLPIAPTPPIDAGMFEFCKTCYICRDVCVSGGVHQEDEPTWDSGNWWNVQGYLGYRTDWSGCHNQCGMCQSSCPFTYLGLENASLVHKIVKGVVANTTVFNSFFTNMEKALGYGDLTMENSNWWKEEGPIYGFDPGT
modifications: partially purified native enzyme; Dehalococcoides sp. VS
[3]; step: Anionic exchange chromotagraphy
  Sp act (VC reduction): 638 mU/mg protein
[3]; step: Cell-free extract, 1 mU = 1 nmol VC per minute
  Sp act (VC reduction): 220 mU/mg protein
[3]; step: Gelfiltration
  Sp act (VC reduction): 990 mU/mg protein
[3]; step: Membrane fraction
  Sp act (VC reduction): 346 mU/mg protein
[3]; step: Solubilized membrane fraction
  Sp act (VC reduction): 308 mU/mg protein
